Experimental data reported in US8815858B2, “Heterocyclic flaviviridae virus inhibitors” (Gilead Sciences, Inc., priority 2010, dated 2014).

Test system: HCV replicon (1B Replicon)
Assay: HCV replicon assay, inhibition of viral replication (luciferase)
Assay type: cell-based
Conditions: Hepatitis C virus, 72 h; 10 uM compound; human hepatoma Huh-7 HCV replicon cells; 3 days incubation; luminescence; read-out: % inh at 10 uM (1B Replicon)
Procedure: The anti-HCV activity of the compounds of this invention was tested in a human hepatoma Huh-7 cell line harboring a HCV replicon. The assay comprised the following steps:
Serial dilution was performed in 100% DMSO in a 384-well plate. A solution containing a compound at 225-fold concentration of the starting final serial dilution concentration was prepared in 100% DMSO and 15 uL added to the pre-specified wells in column 3 or 13 of a polypropylene 384-well plate. The rest of the 384-well plate was filled with 10 uL 100% DMSO except for columns 23 and 24, where 10 uL of 500 uM a HCV protease inhibitor (ITMN-191) in 100% DMSO was added. The HCV protease inhibitor was used a control of 100% inhibition of HCV replication. The plate was then placed on a Biomek FX Workstation to start the serial dilution. The serial dilution was performed for ten cycles of 3-fold dilution from column 3 to 12 or from column 13 to 22.
To each well of a black polypropylene 384-well plate, 90 μL of cell media containing 1600 suspended Huh-7 HCV replicon cells was added with a Biotek uFlow Workstation. A volume of 0.4 μL of the compound solution was transferred from the serial dilution plate to the cell culture plate on a Biomek FX Workstation. The DMSO concentration in the final assay condition was 0.44%. The plates were incubated for 3 days at 37° C. with 5% CO2 and 85% humidity.
b) Assessment of inhibition of viral replication: The calcein-PBS solution in the 384-well cell culture plate was aspirated with a Biotek EL405 plate-washer. A volume of 20 μL of Dual-Glo luciferase buffer (Promega, Dual-Glo Luciferase Assay Reagent, cat. #E298B) was added to each well of the plate with a Biotek uFlow Workstation. The plate was incubated for 10 minutes at room temperature. A volume of 20 μL of a solution containing 1:100 mixture of Dual-Glo Stop & Glo substrate (Promega, Dual-Glo Luciferase Assay Reagent, cat. #E313B) and Dual-Glo Stop & Glo buffer (Promega, Dual-Glo Luciferase Assay Reagent, cat. #E314B) was then added to each well of the plate with a Biotek uFlow Workstation. The plate was incubated at room temperature for 10 minutes before the luminescence signal was measured with a Perkin Elmer Envision Plate Reader.
The percent cytotoxicity was determined by calcein AM conversion to fluorescent product. The average fluorescent signal from the DMSO control wells were defined as 100% nontoxic. The individual fluorescent signal from testing compound treated well was divided by the average signal from DMSO control wells and then multiplied by 100% to get the percent viability. The percent anti-HCV replication activity was determined by the luminescence signal from the testing well compared to DMSO controls wells. The background signal was determined by the average luminescence signal from the HCV protease inhibitor treated wells and was subtracted from the signal from the testing wells as well as the DMSO control wells. Following 3-fold serial dilutions, the EC50 and CC50 values were calculated by fitting % inhibition at each concentration to the following equation: % inhibition=100%/[(EC50/[I])^b+1]
% inhibition values at any specific concentration, for example 10 μM, can also be derived from the formula above.

Row | Compound | inhibition at 10 µM [%]
1 | COc1ccc(-c2nnc(Cn3cnc4c(Cl)c(-c5ccccc5F)nc-4c3)s2)c(C(F)(F)F)c1 | 100
2 | COc1ccc(-c2nnc(Cn3cnc4c(C(N)=O)c(-c5ccccc5F)nc-4c3)s2)c(C(F)(F)F)c1 | 36.6
3 | COc1ccc(-c2nnc(Cn3cnc4c(Br)c(-c5ccccc5F)nc-4c3)s2)c(C(F)(F)F)c1 | 100
4 | COc1ccc(-c2nnc(Cn3cnc4c(C#Cc5cncnc5)c(-c5ccccc5F)nc-4c3)s2)c(C(F)(F)F)c1 | 97.8
5 | Fc1ccccc1-c1cc2ccn(Cc3ccc(-c4ccc(C(F)(F)F)cc4C(F)(F)F)nn3)nc-2n1 | 97.4
6 | Fc1ccccc1-c1cc2ncn(Cc3ccc(-c4ccc(C(F)(F)F)cc4C(F)(F)F)nn3)cc-2n1 | 100
7 | COc1ccc(-c2nnc(Cn3cnc4cc(-c5ccccc5F)nc-4c3)s2)c(C(F)(F)F)c1 | 100
8 | Fc1ccccc1-c1cc2ncn(Cc3nnc(-c4ccc(C(F)(F)F)cc4C(F)(F)F)s3)cc-2n1 | 100
9 | Fc1ccccc1-c1cc2ncn(Cc3cc(-c4ccc(C(F)(F)F)cc4C(F)(F)F)no3)cc-2n1 | 99.6
10 | Fc1ccccc1-c1cc2ccn(Cc3cc(-c4ccc(C(F)(F)F)cc4C(F)(F)F)no3)nc-2n1 | 77
11 | COc1ccc(-c2nnc(Cn3cnc4c(C#N)c(-c5ccccc5F)nc-4c3)s2)c(C(F)(F)F)c1 | 99.9
12 | COc1ccc(-c2nnc(Cn3ccc4cc(-c5ccccc5F)nc-4n3)s2)c(C(F)(F)F)c1 | 98.1
